Results: a compilation of properties of binary mixtures (doi:10.1021/je300932n)

Test: xn = mol fraction of the nth substance listed
Details: 101 kPa

CCCC[n+]1ccn(C)c1.N[C@@H](CC(=O)O)C(=O)[O-] + CO
electrical conductivity [S/m]
Details | 298.15 K | 303.15 K | 308.15 K | 318.15 K
x1 = 0.0099 | 0.82 | 0.89 | 1 | 1.03
x2 = 0.1001 | 0.087 | 0.101 | 0.124 | 0.205
x2 = 0.1999 | 0.093 | – | 0.155 | –
x2 = 0.2999 | – | 0.148 | 0.202 | 0.233
x2 = 0.398 | 0.125 | 0.185 | – | 0.26
x2 = 0.5015 | – | 0.231 | 0.263 | –
x2 = 0.5949 | 0.218 | – | 0.336 | 0.429
x2 = 0.6969 | 0.314 | – | – | 0.64
x2 = 0.7957 | – | 0.75 | 0.83 | –
x2 = 0.8988 | – | 1.22 | 1.28 | –
x2 = 0.9214 | 1.27 | 1.32 | – | 1.48
x2 = 0.9501 | 1.36 | 1.39 | 1.44 | 1.57
x2 = 0.975 | 1.23 | 1.25 | – | 1.39
